Laboratory results from PMC8213057, “Targeting ALK2: An Open Science Approach to Developing Therapeutics for the Treatment of Diffuse Intrinsic Pontine Glioma” (Journal of Medicinal Chemistry, 2020).

Key:
[1] = target: RSK4 (Homo sapiens, UniProt Q9UK32); settings: 1 μM; Run 1, Run 2
[2] = target: T1, NEK2 (Homo sapiens, UniProt P51955); experiment: biochemical; settings: read-out: % enzyme activity, 1 μM; Run 1, Run 2
T1 sequence (P51955 1-445): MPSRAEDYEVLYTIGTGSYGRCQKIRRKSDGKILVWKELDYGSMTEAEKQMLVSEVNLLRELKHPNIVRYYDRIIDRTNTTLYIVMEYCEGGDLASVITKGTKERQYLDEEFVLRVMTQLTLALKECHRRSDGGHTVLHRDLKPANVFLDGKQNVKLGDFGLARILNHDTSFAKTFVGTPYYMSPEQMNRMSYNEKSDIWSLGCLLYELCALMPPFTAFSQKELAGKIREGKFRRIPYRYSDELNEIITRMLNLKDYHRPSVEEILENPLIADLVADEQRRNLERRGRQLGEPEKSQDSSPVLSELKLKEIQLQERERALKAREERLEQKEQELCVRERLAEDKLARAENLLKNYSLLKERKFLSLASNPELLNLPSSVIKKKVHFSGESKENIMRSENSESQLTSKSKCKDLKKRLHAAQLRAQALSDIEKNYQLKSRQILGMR

[3] = target: T2, TAK1 (Homo sapiens, UniProt O43318); experiment: biochemical; settings: read-out: % enzyme activity, 1 μM; Run 1, Run 2
T2 sequence (O43318 1-303 limits assumed): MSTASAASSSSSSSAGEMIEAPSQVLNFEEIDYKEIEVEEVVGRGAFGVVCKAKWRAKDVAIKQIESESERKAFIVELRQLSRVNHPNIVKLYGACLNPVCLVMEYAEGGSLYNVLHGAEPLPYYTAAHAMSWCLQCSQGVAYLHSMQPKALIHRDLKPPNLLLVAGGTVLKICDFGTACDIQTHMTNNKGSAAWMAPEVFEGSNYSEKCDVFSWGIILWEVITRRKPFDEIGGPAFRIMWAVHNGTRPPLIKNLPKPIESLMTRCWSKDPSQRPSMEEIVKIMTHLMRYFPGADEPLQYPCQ

[4] = target: T3, VRK1 (Homo sapiens, UniProt Q99986); settings: 1 μM; Run 1, Run 2
T3 sequence (Q99986 1-396): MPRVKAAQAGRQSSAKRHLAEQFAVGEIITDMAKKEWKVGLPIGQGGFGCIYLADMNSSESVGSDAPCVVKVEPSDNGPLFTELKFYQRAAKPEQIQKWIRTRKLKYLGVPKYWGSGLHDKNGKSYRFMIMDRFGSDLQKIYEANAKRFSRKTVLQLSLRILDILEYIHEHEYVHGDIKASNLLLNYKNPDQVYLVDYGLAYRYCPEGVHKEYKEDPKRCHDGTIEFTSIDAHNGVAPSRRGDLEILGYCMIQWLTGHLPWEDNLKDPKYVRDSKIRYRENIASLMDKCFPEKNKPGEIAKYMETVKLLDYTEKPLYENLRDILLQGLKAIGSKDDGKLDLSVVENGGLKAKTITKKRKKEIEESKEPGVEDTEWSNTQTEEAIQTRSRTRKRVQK

[5] = target: T4, MST2/STK3 (Homo sapiens, UniProt Q13188); settings: 1 μM; Run 1, Run 2
T4 sequence (Q13188 1-491): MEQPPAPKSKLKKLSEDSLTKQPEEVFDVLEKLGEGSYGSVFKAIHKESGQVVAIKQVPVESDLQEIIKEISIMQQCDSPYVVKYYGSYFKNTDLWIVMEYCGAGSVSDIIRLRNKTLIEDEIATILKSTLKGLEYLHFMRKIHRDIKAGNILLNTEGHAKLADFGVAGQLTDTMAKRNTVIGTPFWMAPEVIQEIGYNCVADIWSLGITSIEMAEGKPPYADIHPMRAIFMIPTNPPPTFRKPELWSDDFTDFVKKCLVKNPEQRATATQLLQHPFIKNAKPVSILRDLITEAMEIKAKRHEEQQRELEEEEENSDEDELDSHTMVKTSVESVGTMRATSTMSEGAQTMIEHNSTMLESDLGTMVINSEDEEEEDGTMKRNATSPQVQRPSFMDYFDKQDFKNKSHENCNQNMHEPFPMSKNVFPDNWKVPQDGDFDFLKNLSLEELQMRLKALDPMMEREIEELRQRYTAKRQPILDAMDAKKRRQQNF

[6] = target: PKCb1 (Homo sapiens, UniProt P05771); settings: 1 μM; Run 1, Run 2
PKCb1, sequence (P05771 whole entry): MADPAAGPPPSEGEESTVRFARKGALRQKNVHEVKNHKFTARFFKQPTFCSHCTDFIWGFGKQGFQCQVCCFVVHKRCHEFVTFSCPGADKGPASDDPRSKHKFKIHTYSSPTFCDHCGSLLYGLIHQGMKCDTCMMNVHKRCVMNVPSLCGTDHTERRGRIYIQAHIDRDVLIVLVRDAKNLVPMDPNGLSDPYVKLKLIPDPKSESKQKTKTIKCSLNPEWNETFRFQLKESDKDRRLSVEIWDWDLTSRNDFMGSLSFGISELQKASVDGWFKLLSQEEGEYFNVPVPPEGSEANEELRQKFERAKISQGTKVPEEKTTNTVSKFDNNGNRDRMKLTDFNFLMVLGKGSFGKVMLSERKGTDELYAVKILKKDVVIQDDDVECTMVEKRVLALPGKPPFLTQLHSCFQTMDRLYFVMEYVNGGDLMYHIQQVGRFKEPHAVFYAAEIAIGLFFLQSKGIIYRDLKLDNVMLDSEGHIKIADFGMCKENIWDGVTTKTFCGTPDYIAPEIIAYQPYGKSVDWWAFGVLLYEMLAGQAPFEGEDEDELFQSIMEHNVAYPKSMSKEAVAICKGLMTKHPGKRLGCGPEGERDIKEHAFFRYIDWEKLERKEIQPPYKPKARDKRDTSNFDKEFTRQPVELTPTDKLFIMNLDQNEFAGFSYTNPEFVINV

[7] = target: SBK1 (Homo sapiens, UniProt Q52WX2); settings: 1 μM; Run 1, Run 2
SBK1, sequence (Q52WX2 whole entry): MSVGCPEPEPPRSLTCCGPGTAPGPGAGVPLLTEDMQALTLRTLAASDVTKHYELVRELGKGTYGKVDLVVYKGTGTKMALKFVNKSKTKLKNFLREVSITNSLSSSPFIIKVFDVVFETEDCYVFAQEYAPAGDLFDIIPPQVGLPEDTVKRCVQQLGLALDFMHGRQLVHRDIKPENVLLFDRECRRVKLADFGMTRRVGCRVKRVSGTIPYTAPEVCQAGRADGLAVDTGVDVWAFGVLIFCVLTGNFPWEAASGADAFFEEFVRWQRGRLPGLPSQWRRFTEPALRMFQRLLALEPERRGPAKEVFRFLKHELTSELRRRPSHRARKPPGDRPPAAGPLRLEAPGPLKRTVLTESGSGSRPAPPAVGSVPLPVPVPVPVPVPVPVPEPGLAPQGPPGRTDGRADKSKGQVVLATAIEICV

[8] = target: STK21/CIT (Homo sapiens, UniProt O14578); settings: 1 μM; Run 1, Run 2
STK21/CIT, sequence (O14578 whole entry): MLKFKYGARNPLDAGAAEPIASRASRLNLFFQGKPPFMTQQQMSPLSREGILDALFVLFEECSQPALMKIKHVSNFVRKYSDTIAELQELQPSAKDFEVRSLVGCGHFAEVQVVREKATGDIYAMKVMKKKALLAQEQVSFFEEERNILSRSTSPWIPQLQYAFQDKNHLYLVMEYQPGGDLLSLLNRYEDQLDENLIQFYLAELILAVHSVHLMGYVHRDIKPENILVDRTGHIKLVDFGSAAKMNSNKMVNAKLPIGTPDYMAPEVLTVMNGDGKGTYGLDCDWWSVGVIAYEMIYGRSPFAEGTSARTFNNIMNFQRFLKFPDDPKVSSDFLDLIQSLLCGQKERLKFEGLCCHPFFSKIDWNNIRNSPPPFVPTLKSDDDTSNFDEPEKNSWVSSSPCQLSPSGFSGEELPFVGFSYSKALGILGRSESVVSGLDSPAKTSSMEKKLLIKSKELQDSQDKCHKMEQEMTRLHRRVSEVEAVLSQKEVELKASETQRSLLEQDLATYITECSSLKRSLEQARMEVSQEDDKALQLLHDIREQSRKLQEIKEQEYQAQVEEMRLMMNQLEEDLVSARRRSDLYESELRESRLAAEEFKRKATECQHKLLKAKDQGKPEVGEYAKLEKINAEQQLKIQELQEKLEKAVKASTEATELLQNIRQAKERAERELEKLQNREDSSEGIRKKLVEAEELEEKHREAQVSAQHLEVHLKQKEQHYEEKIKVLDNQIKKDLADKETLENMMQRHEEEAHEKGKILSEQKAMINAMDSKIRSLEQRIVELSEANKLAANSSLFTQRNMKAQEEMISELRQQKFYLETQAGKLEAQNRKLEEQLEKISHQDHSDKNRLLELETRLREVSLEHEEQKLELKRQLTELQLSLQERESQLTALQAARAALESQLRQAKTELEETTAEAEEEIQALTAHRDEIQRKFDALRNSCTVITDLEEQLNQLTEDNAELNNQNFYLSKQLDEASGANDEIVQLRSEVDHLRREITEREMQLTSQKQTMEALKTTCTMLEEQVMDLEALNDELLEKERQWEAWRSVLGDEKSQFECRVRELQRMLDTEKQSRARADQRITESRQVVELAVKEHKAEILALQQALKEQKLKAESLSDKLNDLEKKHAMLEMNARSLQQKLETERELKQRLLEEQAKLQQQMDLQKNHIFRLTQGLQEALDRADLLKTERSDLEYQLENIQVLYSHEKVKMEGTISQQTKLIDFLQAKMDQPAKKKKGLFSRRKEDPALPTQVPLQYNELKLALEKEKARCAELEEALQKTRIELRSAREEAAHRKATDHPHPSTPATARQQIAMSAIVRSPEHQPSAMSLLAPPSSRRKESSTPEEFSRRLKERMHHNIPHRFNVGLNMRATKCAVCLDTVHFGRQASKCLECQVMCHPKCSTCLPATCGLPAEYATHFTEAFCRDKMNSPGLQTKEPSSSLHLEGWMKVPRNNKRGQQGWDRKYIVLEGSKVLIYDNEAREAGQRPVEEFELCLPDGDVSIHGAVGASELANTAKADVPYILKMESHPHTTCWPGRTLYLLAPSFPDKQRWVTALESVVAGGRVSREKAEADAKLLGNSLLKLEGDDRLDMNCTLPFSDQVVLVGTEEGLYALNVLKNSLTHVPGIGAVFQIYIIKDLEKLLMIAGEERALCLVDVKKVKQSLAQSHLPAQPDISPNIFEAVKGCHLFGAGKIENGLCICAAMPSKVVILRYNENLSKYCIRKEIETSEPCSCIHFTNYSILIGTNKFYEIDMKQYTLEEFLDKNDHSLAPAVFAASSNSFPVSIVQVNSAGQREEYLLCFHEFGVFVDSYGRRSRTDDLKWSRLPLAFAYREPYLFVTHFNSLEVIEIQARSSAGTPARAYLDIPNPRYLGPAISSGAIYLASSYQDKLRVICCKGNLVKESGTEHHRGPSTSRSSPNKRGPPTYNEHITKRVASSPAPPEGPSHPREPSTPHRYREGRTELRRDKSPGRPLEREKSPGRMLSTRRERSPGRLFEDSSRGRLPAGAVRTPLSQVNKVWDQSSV

[9] = target: NEK7 (Homo sapiens, UniProt Q8TDX7); experiment: biochemical; settings: read-out: % enzyme activity, 1 μM; Run 1, Run 2
NEK7, sequence (Q8TDX7 whole entry): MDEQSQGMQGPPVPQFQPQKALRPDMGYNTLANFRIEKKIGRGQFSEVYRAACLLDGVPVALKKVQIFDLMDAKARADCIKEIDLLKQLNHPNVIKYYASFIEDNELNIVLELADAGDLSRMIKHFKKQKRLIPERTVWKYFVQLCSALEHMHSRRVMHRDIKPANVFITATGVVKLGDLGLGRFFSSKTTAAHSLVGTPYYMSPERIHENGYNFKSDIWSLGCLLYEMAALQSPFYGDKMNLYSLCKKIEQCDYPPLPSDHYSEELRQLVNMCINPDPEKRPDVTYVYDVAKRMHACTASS

[10] = target: JNK1 (Homo sapiens, UniProt P45983); experiment: biochemical; settings: read-out: % enzyme activity, 1 μM; Run 1, Run 2
JNK1, sequence (P45983 whole entry): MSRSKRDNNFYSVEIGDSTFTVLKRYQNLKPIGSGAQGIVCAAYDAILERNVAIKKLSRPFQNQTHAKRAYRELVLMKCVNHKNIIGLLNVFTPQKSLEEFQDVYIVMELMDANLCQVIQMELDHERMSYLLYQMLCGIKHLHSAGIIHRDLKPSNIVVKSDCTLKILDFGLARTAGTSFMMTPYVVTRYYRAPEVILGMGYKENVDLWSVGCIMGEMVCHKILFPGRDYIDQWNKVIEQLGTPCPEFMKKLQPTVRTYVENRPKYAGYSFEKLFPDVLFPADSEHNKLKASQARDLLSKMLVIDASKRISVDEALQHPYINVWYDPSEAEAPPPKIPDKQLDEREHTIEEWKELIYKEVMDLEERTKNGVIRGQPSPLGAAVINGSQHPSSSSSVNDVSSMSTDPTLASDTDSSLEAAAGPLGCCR

[11] = target: PAK3 (Homo sapiens, UniProt O75914); settings: 1 μM; Run 1, Run 2
[12] = target: PAK2 (Homo sapiens, UniProt Q13177); experiment: biochemical; settings: read-out: % enzyme activity, 1 μM; Run 1, Run 2
PAK2, sequence (Q13177 whole entry): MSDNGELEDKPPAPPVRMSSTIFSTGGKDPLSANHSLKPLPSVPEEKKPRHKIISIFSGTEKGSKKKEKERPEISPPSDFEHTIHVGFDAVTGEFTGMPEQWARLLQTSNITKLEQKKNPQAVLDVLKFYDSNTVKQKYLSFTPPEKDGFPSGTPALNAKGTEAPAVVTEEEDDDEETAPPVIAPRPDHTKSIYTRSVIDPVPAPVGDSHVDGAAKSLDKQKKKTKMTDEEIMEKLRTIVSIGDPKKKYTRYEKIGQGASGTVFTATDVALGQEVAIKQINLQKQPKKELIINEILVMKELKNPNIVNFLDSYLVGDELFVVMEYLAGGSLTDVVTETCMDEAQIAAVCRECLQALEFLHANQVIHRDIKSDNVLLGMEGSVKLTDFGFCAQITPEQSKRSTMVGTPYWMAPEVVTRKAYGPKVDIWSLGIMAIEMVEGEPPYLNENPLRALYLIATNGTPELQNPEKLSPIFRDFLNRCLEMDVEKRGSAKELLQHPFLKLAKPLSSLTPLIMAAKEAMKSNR

[13] = target: P38b/MAPK11 (Homo sapiens, UniProt Q15759); settings: 1 μM; Run 1, Run 2
P38b/MAPK11, sequence (Q15759 whole entry): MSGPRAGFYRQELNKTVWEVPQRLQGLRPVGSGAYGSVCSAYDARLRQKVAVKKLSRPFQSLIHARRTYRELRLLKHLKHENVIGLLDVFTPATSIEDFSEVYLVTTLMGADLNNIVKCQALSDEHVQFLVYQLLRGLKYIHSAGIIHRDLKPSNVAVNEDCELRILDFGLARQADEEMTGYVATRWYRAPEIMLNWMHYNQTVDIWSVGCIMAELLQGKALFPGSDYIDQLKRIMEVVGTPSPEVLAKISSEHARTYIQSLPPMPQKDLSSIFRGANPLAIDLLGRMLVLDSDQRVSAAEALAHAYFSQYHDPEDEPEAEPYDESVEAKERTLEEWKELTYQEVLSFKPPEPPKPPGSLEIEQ

Structure (SMILES)	% enzyme activity [1]	remaining activity at 1 µM [2]	remaining activity at 1 µM [3]	% enzyme activity [4]	% enzyme activity [5]	% enzyme activity [6]	% enzyme activity [7]	% enzyme activity [8]	remaining activity at 1 µM [9]	remaining activity at 1 µM [10]	% enzyme activity [11]	remaining activity at 1 µM [12]	% enzyme activity [13]
COc1cc(-c2cncc(-c3ccc(N4CCN(C)CC4)cc3)c2C)cc(F)c1C(N)=O [Compound 26a, 2-Fluoro-6-methoxy-4-(4-methyl-5-(4-(4-methylpiperazin-1-yl)phenyl)pyridin-3-yl)benzamide]	95.64%	92.3%	98.5%	100.69%	93.91%	82.63%	93.74%	84.42%	97.6%	90.6%	87.14%	101%	92.20%
COc1cc(-c2cncc(-c3ccc(N4C[C@@H](C)N(C)[C@@H](C)C4)cc3)c2C)cc(F)c1C(N)=O [Compound 26c, 2-Fluoro-6-methoxy-4-(4-methyl-5-(4-((3R,5S)-3,4,5-trimethylpiperazin-1-yl)phenyl)pyridin-3-yl)benzamide]	94.61%	98.5%	99.1%	98.74%	100.46%	83.58%	101.08%	84.97%	97.4%	86.9%	124.21%	104%	95.51%
